Ends that are not written are not given here.
B1: HMGB1: danger-associated molecular pattern (protein, UniProt P09429 1-215, looked up)
High mobility group protein B1: MGKGDPKKPRGKMSSYAFFVQTCREEHKKKHPDASVNFSEFSKKCSERWKTMSAKEKGKFEDMAKADKARYEREMKTYIPPKGETKKKFKDPNAPKRPPSAFFLFCSEYRPKIKGEHPGLSIGDVAKKLGEMWNNTAADDKQPYEKKAAKLKEKYEKDIAAYRAKGKPDAAKKGVVKAEKSKKKKEEEEDEEDEEDEEEEEDEEDEDEEEDDDDE
B2: S100A9: danger-associated molecular pattern (protein, UniProt P06702 1-114, looked up)
Protein S100-A9: MTCKMSQLERNIETIINTFHQYSVKLGHPDTLNQGEFKELVRKDLQNFLKKENKNEKVIEHIMEDLDTNADKQLSFEEFIMLMARLTWASHEKMHEGDEGPGHHHKPGLGEGTP

Experiments:
[1] = system: αV integrin subunit expression, human fibroblast-like synoviocytes (FLSs); assay: αV subunit expression in FLSs by western blot after stimulation; format: cell-based; details: OA FLSs, western blot normalized to GAPDH; IL-1β, IL-6, TNF-α 10 ng/mL 3 or 7 days; prednisolone, dexamethasone 1 μM 3 or 7 days; HMGB1 10, 50, 100 ng/mL 3 days; S100A9, S100A12 100, 200 ng/mL 3 days or 24 h; AGE-BSA 50, 100, 200 μg/mL 3 days or 24 h; menadione 25–50–100 μM 3 h; H2O2 100–200–400 μM 2 h
Procedure: (§1) Synovial membranes were obtained from 22 OA patients (14 females, 8 males; mean age 69.8 ± 9.6 years, BMI 30.9 ± 6.8) during knee replacement, and primary synovial fibroblasts were isolated as explained previously. The research ethics committee of CHU de Liege (Belgium) approved the study, and the patient gave informed consent to allow research procedures on samples. Human fibroblast-like synoviocytes (FLSs) were then cultured in DMEM supplemented with 10% FBS, 1% Pen/Strep, and 1% L-glutamine (all from Lonza; Basel, Switzerland) at 37 °C in an atmosphere of 5% CO2. In a plate, 5 × 10^4 FLSs were stimulated with different compounds to analyze the modulation of αVβ6: (i) TGF-β1, TNF-α, IL-1β, or IL-6 were used for 3 or 7 days at a concentration of 10 ng/mL; (ii) among the danger-associated molecular patterns, high-mobility group box 1 (HMGB1) was tested at 10, 50, and 100 ng/mL for 3 days, while S100A9 and S100A12 were tested at 100 and 200 ng/mL for 3 days or 24 h; (iii) advanced glycation end product (AGE-BSA) was tested at 50, 100, and 200 μg/mL for 3 days or 24 h; (iv) prednisolone and dexamethasone were used at 1 μM for 3 or 7 days; and (v) menadione or H2O2 was used to induce oxidative stress at 25–50–100 μM (3 h) and 100–200–400 μM (2 h), respectively, without FBS in the medium.
(§2) The expression of αV and β6 subunits and α-SMA in FLSs was evaluated by western blot analysis. Cells were scraped from plates and lysed with lysis buffer (25 mM HEPES, 150 mM NaCl, 0.5% Triton, 10% glycerol, 1 mM dithiothreitol) containing phosphatase inhibitors (25 mM β-glycerophosphate, 1 mM Na3VO4, and 1 mM NaF) and complete protease inhibitor mixture (Roche Applied Science; Penzberg, Germany). Total proteins were separated by 10% SDS–PAGE gels (12% for α-SMA) and transferred onto PVDF membranes. The membranes were then incubated with anti-αV polyclonal antibody (1:250 dilution) (Cell Signaling Technology; Boston, MA, USA), anti-β6 polyclonal antibody (1:1000 dilution) (Abcam; Cambridge, UK) or anti-α-SMA monoclonal antibody (Agilent; Santa Clara, CA, USA; 1:1000 dilution). HRP-conjugated anti-rabbit antibody (1:1000 dilution) (Cell Signaling Technology) was used as the secondary antibody. Immunoblots were developed using the ECL chemiluminescent detection system. Rabbit anti-glyceraldehyde 3-phosphate dehydrogenase (GAPDH) (Merck) or rabbit anti-heat shock protein 90 (Hsp90; Santa Cruz) was used as loading controls at a dilution of 1:10,000 or 1:200, respectively. Values of optical intensity were normalized to GAPDH or Hsp90 levels. Data were analyzed by paired Wilcoxon test; a p-value < 0.05 was considered statistically significant. Statistical analysis was performed with GraphPad Prism 6 software (San Diego, CA, USA).
Supplementary information SI3.
Variation of αV and β6 expression in human fibroblast-like synoviocytes after stimulation with different compounds. Time of stimulation and employed substances are indicated. The graphs represent αV and β6 expression before and after stimulation, obtained by western blot. Values were normalized to GAPDH and analysed by paired Wilcoxon test.
IL-1β 10 ng/mL 3 days IL-6 10 ng/mL 3 daysIL-6 Prednisolone 1µM 3 daysPrednisolone […]
Dexamethasone 1µM 3 days TNF-α 10 ng/mL 3 days TGF-β 10 ng/mL 3 days
(1 picture or pasted object on this page, not shown here)
0.0 control IL-6 0.0 control PRE […]

[2] = system: β6 integrin subunit expression, human fibroblast-like synoviocytes (FLSs); assay: β6 subunit expression in FLSs by western blot after stimulation; format: cell-based; details: OA FLSs, western blot normalized to GAPDH; IL-1β, IL-6, TNF-α 10 ng/mL 3 or 7 days; prednisolone, dexamethasone 1 μM 3 or 7 days; HMGB1 10, 50, 100 ng/mL 3 days; S100A9, S100A12 100, 200 ng/mL 3 days or 24 h; AGE-BSA 50, 100, 200 μg/mL 3 days or 24 h; menadione 25–50–100 μM 3 h; H2O2 100–200–400 μM 2 h
Procedure: as §1, §2
IL-1β 10 ng/mL 3 days IL-6 10 ng/mL 3 daysIL-6 Prednisolone 1µM 3 daysPrednisolone
0.0 control IL-6 0.0 control PRE
Dexamethasone 1µM 3 daysDexamethasone TNF-α 10 ng/mL 3 days AGE 50 µg/mL 24 h

integrin αVβ6 = target: T1, integrin αVβ6 (Homo sapiens, UniProt P06756+P18564); assay: Competition study, 125ISIB-echistatin vs ligands on coated αVβ6; format: binding; details: competition with 20 nM 125ISIB-echistatin, recombinant human αVβ6 coated at 1.8 µg/mL, IBB pH 7.4 / 0.5% BSA, 2 h room temperature, duplicate wells, gamma counter, five-parameter logistic
T1 construct: purchased R&D System; Minneapolis, MN, USA
T1 sequence (P06756 31-992 limits assumed): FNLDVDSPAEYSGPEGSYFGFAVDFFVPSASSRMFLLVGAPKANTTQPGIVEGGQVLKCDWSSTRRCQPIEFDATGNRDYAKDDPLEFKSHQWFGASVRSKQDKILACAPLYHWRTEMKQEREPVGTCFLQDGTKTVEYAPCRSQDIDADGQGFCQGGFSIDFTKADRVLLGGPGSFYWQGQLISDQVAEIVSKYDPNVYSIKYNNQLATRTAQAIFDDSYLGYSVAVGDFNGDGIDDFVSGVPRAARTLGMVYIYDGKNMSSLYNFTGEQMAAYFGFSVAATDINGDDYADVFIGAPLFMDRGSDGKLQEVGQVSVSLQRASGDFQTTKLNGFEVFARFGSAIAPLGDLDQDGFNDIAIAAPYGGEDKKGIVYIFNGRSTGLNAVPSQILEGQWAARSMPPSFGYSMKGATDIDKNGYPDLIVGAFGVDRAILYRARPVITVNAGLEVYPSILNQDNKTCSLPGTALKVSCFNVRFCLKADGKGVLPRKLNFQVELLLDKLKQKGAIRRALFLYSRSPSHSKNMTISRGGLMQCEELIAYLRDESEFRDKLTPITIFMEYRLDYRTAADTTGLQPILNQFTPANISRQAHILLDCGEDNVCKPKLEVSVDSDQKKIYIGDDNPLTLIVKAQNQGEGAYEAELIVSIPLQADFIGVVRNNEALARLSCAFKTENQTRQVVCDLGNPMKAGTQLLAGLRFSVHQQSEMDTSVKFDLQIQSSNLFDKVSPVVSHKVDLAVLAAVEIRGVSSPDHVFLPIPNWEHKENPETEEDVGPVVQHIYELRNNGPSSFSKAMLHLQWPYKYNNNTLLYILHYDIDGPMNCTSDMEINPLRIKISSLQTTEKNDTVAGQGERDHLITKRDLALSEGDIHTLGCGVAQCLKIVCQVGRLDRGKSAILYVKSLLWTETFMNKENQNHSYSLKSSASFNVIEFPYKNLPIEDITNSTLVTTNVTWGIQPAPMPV
T1 sequence (P18564 22-707 limits assumed): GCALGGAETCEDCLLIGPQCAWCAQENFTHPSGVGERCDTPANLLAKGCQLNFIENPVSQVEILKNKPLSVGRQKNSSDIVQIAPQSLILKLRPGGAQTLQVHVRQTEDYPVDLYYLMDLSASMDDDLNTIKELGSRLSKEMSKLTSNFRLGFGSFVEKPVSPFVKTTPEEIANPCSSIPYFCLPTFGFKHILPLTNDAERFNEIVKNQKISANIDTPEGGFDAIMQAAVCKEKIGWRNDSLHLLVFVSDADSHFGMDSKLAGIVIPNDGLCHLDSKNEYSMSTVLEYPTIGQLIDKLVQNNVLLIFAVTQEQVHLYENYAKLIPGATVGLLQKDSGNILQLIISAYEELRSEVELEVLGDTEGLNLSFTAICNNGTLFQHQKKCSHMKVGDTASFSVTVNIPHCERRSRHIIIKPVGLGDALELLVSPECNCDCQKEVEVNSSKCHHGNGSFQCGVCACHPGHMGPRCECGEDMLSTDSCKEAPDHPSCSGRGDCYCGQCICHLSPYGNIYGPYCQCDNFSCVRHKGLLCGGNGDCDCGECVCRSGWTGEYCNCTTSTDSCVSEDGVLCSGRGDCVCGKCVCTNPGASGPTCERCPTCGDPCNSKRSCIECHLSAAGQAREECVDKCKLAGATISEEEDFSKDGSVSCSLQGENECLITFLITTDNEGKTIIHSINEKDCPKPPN
Procedure: (§3) A competition study was performed to investigate the interaction of VTN(381–397 a.a.) with five different integrins. Radiolabeled echistatin, a disintegrin known to bind integrin receptors, was used as a tracer for the binding assays. Lyophilized echistatin was provided by Bachem (Bubendorf, Switzerland) and radiolabeled by conjugation with a radioiodinated benzoate (^125ISIB) to the epsilon amino group of lysine side chains. For the five integrins, α5β1, αVβ1, αVβ3, αVβ5, and αVβ6 (R&D System; Minneapolis, MN, USA), a solution at 1.8 µg/mL was prepared with integrin-binding buffer (IBB; 20 mM Tris pH 7.4, 150 mM NaCl, 2 mM CaCl2, 1 mM MgCl2, 1 mM MnCl2). Nunc Maxisorp Module plates were coated overnight at 4 °C with integrin complex at 1.8 µg/mL. After the wells were washed with sample buffer (IBB, 0.5% BSA), blocking solution (IBB, 2% BSA) was added, and the microplate was incubated for 2 h at room temperature. The wells were then washed three times with IBB/0.5% BSA. Then, ^125ISIB-echistatin was diluted in sample buffer to fixed concentrations of 4, 4, 8, 8, and 20 nM for α5β1, αVβ1, αVβ3, αVβ5, and αVβ6 competition studies, respectively. The ^125ISIB-echistatin was mixed with sample buffer at a ratio of 1:1 (total binding = control well) or with increasing concentrations of ligands (Supplementary information SI1) [complete VTN, VTN(381–397 a.a.), VTN(365–381 a.a.)] at a ratio 1:1 and added to wells in duplicate. We used 1,4,7-triazacyclononane-1,4,7-triacetic acid (NOTA) as a negative control. […] After rinsing, bound radioactivity was quantified using a gamma counter. The percentage of relative binding of radiolabeled echistatin was calculated as follows: radioactivity in the test well*100/radioactivity in the reference well. […] For comparison of the potency of ligands in inhibiting bound ^125ISIB-echistatin for different integrin complexes, the half-maximal inhibitory concentration (IC50) was calculated. The IC50 value was determined by constructing a dose–response curve and examining the effect of different concentrations of ligands on ^125ISIB-echistatin binding. […]
To determine if VTN(381–397 a.a.) could interact with integrins, we investigated its ability to compete with radiolabeled echistatin for binding to five different integrin complexes: α5β1, αVβ1, αVβ3, αVβ5 and αVβ6. […] First, the binding affinity of echistatin to the five integrins was measured by determining the equilibrium dissociation constant (KD). […] The fixed concentration of radiolabeled echistatin was determined according to its KD value. For each ligand concentration, the relative binding of ^125ISIB-echistatin to coated integrins was then measured, and values were plotted versus the logarithm of ligand concentration.

integrin αVβ3 = target: T2, integrin αVβ3 (Homo sapiens, UniProt P05106+P06756); assay: Competition study, 125ISIB-echistatin vs ligands on coated αVβ3; format: binding; details: competition with 8 nM 125ISIB-echistatin, recombinant human αVβ3 coated at 1.8 µg/mL, IBB pH 7.4 / 0.5% BSA, 2 h room temperature, duplicate wells
T2 construct: purchased R&D System; Minneapolis, MN, USA
T2 sequence (P06756 31-992 limits assumed): as the sequence (P06756 31-992 limits assumed) above
T2 sequence (P05106 27-718 limits assumed): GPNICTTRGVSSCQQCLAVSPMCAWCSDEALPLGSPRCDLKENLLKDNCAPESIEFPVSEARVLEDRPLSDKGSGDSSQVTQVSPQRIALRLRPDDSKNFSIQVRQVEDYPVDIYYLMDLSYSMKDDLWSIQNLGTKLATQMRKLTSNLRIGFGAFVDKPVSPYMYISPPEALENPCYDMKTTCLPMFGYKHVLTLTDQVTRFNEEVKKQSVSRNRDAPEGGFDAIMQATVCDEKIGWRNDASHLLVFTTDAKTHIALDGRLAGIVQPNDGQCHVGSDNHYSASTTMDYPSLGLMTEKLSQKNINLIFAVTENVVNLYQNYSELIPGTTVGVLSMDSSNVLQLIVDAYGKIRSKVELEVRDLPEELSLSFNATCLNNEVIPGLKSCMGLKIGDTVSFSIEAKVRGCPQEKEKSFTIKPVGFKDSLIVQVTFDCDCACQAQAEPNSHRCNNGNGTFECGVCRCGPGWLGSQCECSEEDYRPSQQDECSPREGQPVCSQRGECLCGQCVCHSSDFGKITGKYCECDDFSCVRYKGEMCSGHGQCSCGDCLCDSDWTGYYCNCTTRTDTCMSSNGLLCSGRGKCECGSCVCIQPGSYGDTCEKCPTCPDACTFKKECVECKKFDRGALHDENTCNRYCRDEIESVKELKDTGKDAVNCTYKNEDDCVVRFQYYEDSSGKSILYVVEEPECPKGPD
Procedure: as §3, with “µg/mL.” for “µg/mL. After the wells were washed with sample buffer (IBB, 0.5% BSA), blocking solution (IBB, 2% BSA) was added, and the microplate was incubated for 2 h at room temperature. The wells were then washed three times with IBB/0.5% BSA. Then, ^125ISIB-echistatin was diluted in sample buffer to fixed concentrations of 4, 4, 8, 8, and 20 nM for α5β1, αVβ1, αVβ3, αVβ5, and αVβ6 competition studies, respectively. The ^125ISIB-echistatin was mixed with sample buffer at a ratio of 1:1 (total binding = control well) or with increasing concentrations of ligands (Supplementary information SI1) [complete VTN, VTN(381–397 a.a.), VTN(365–381 a.a.)] at a ratio 1:1 and added to wells in duplicate. We used 1,4,7-triazacyclononane-1,4,7-triacetic acid (NOTA) as a negative control.”

integrin αVβ5 = target: T3, integrin αVβ5 (Homo sapiens, UniProt P06756+P18084); assay: Competition study, 125ISIB-echistatin vs ligands on coated αVβ5; format: binding; details: competition with 8 nM 125ISIB-echistatin, recombinant human αVβ5 coated at 1.8 µg/mL, IBB pH 7.4 / 0.5% BSA, 2 h room temperature, duplicate wells
T3 construct: purchased R&D System; Minneapolis, MN, USA
T3 sequence (P06756 31-992 limits assumed): as the sequence (P06756 31-992 limits assumed) above
T3 sequence (P18084 24-719 limits assumed): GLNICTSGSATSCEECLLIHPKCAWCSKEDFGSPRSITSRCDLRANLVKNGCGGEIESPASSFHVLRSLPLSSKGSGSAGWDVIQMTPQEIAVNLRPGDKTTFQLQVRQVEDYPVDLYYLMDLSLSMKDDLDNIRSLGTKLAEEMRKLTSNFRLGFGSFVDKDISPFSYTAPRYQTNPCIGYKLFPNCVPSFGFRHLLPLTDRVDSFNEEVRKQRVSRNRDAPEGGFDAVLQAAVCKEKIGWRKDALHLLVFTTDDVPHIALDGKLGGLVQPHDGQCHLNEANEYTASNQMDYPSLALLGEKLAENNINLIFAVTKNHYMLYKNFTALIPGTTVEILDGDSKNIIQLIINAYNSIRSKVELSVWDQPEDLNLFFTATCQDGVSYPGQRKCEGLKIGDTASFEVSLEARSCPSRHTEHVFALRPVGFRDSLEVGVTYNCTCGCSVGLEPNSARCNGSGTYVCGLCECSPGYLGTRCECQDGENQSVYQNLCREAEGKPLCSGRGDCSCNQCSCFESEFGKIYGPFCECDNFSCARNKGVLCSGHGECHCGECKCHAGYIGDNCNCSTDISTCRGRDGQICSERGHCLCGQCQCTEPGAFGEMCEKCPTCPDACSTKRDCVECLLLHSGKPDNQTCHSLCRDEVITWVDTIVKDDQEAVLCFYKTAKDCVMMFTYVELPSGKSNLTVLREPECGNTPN
Procedure: as §3, with “µg/mL.” for “µg/mL. After the wells were washed with sample buffer (IBB, 0.5% BSA), blocking solution (IBB, 2% BSA) was added, and the microplate was incubated for 2 h at room temperature. The wells were then washed three times with IBB/0.5% BSA. Then, ^125ISIB-echistatin was diluted in sample buffer to fixed concentrations of 4, 4, 8, 8, and 20 nM for α5β1, αVβ1, αVβ3, αVβ5, and αVβ6 competition studies, respectively. The ^125ISIB-echistatin was mixed with sample buffer at a ratio of 1:1 (total binding = control well) or with increasing concentrations of ligands (Supplementary information SI1) [complete VTN, VTN(381–397 a.a.), VTN(365–381 a.a.)] at a ratio 1:1 and added to wells in duplicate. We used 1,4,7-triazacyclononane-1,4,7-triacetic acid (NOTA) as a negative control.”

| IC50 (integrin αVβ6) [nM] | IC50 (integrin αVβ3) [nM] | IC50 (integrin αVβ5) [nM] | Molecule | effect on αV subunit expression [1] | effect on β6 subunit expression [2] |
| --- | --- | --- | --- | --- | --- |
| – | – | – | OO [H2O2] | none of these treatments influenced the expression levels of the αV and β6 integrin subunits | none of these treatments influenced the expression levels of the αV and β6 integrin subunits |
| – | – | – | C[C@@H]1C[C@H]2[C@@H]3CCC4=CC(=O)C=C[C@]4(C)[C@@]3(F)[C@@H](O)C[C@]2(C)[C@@]1(O)C(=O)CO [dexamethasone] | none of these treatments influenced the expression levels of the αV and β6 integrin subunits | none of these treatments influenced the expression levels of the αV and β6 integrin subunits |
| – | – | – | CC1=CC(=O)c2ccccc2C1=O [menadione] | none of these treatments influenced the expression levels of the αV and β6 integrin subunits | none of these treatments influenced the expression levels of the αV and β6 integrin subunits |
| – | – | – | C[C@]12C=CC(=O)C=C1CC[C@@H]1[C@@H]2[C@@H](O)C[C@@]2(C)[C@H]1CC[C@]2(O)C(=O)CO [prednisolone] | none of these treatments influenced the expression levels of the αV and β6 integrin subunits | none of these treatments influenced the expression levels of the αV and β6 integrin subunits |
| – | – | – | AGE-BSA: advanced glycation end product | none of these treatments influenced the expression levels of the αV and β6 integrin subunits | none of these treatments influenced the expression levels of the αV and β6 integrin subunits |
| – | – | – | IL-1β: proinflammatory cytokine | none of these treatments influenced the expression levels of the αV and β6 integrin subunits | none of these treatments influenced the expression levels of the αV and β6 integrin subunits |
| – | – | – | IL-6: proinflammatory cytokine | none of these treatments influenced the expression levels of the αV and β6 integrin subunits | none of these treatments influenced the expression levels of the αV and β6 integrin subunits |
| 3200 | – | – | SQRGHSRGRNQNSRRPS [VTN(381–397 a.a.)] | – | – |
| – | – | – | TNF-α | none of these treatments influenced the expression levels of the αV and β6 integrin subunits | none of these treatments influenced the expression levels of the αV and β6 integrin subunits |
| 250 | 1500 | 130 | VTN: whole VTN protein | – | – |
| – | – | – | B1 | none of these treatments influenced the expression levels of the αV and β6 integrin subunits | none of these treatments influenced the expression levels of the αV and β6 integrin subunits |
| – | – | – | B2 | none of these treatments influenced the expression levels of the αV and β6 integrin subunits | none of these treatments influenced the expression levels of the αV and β6 integrin subunits |
